Consider two compounds from patent US9566351B2, “Molecular containers and methods of making and using same” (University of Maryland, College Park, priority 2010, dated 2017).

pIC50: −log10 of the molar value. Read-outs that look alike come from different tables or passages of the source.

The conditions of series [1]: clinical evaluation; cited from earlier work.
Series [2] in a line: in vivo. The note with it: Swiss Webster, mouse, ip, plasma concentration.
In series [3] the test system is SKHEP-1 (human liver adenocarcinoma) xenografts. As to conditions: ABZ in sesame oil; xenografts on the flank of mice; cited from earlier work.
Series [4] can be described thus: in vivo. The note with it: Swiss Webster, mouse, iv, plasma concentration.
For series [5] the following is noted: drug with Motor1; 20 mM sodium phosphate buffer (pH=7.4); phase diagram.
Another series relates to SK-OV-3 cells. The note with it: ABZ formulated in ethanol; cited from earlier work.
A short description of series [6]: Phase-solubility of pharmaceutical agents with Motor2 (1H NMR). As to conditions: drug solubilized with Motor2; 20 mM sodium phosphate buffer (pH=7.4); phase diagram.
For series [7] the following is noted: Swiss Webster, mouse, in vivo, iv, 3.2 mg/kg.
The conditions of series [8]: Swiss Webster, mouse, in vivo.
The conditions of series [9]: mice; repeated oral dosing of 30-40 mg/kg/day for 4-90 days; cited from earlier work.
The subject of another series is glioblastoma multiforme. The note with it: daily oral doses (50 and 150 mg/kg) of ABZ tablets mixed with 50% sesame oil; cited from earlier work.
Series [10] deals with OVCAR-3 (human ovarian adenocarcinoma). The note with it: 150 mg/kg of ABZ 3 times a week for 4 weeks through IP; cited from earlier work.

`O=C(O)CCSC[C@H]1O[C@@H]2O[C@H]3[C@H](O)[C@@H](O)[C@@H](O[C@H]4[C@H](O)[C@@H](O)[C@@H](O[C@H]5[C@H](O)[C@@H](O)[C@@H](O[C@H]6[C@H](O)[C@@H](O)[C@@H](O[C@H]7[C@H](O)[C@@H](O)[C@@H](O[C@H]8[C@H](O)[C@@H](O)[C@@H](O[C@H]9[C@H](O)[C@@H](O)[C@@H](O[C@H]1[C@H](O)[C@H]2O)O[C@@H]9CSCCC(=O)O)O[C@@H]8CSCCC(=O)O)O[C@@H]7CSCCC(=O)O)O[C@@H]6CSCCC(=O)O)O[C@@H]5CSCCC(=O)O)O[C@@H]4CSCCC(=O)O)O[C@@H]3CSCCC(=O)O` [sugammadex]: in series [1], the “effects on QT interval” value is on record as “no relevant effects”.

As usually defined, the pIC50 is −log10 of the IC50, conventionally taken in molar units. For the compound `CCCSc1ccc2nc(NC(=O)OC)[nH]c2c1` [Albendazole], the figures for the concentration at 15 min in “in vivo [2]” and in the series “in vivo [4]” were 380 ng/mL and 606 ng/mL, respectively. Moreover, the concentration at 30 min in the series “in vivo [2]” came out at 292 ng/mL. The compound also showed a concentration at 2 h in the series “in vivo [2]” of 122 ng/mL. In addition, the “daily oral dose required to see an antitumor effect” value in [3] was 300 mg/kg. In “in vivo [4]”, this compound gave a concentration at 5 min of 1910 ng/mL. For the same compound, the Solubility enhancement came to 226 fold in series [5] and 149 fold in series [6]. In addition, the pIC50 with SK-OV-3 cells was 5.41. Moreover, the “tmax” value in series [7] was 4.98 min; in [8] (ip, 3.2 mg/kg), 4.98 min. Moreover, in [8], the “Absolute Bioavailability (%)” value stood at 78%. Besides, the signs of toxicity entry in series [9] was “no significant signs of toxicity”. In the series with glioblastoma multiforme, the mouse survival entry is listed as “moderate improvements in mouse survival”. The “effect on malignant ascites” value in series [10] was “suppression of malignant ascites”.
